Test results from paper PMC5218480 (PLoS ONE, 2017).

System: MV-4-11 cells
Test: Gene expression microarray analysis (Affymetrix PrimeView) and GSEA
Type: cell-based, human
Parameters: RFU PODN (11730768_x_at) / Fold change /veh PODN (11730768_x_at) / RFU LINC00158 (11744669_a_at) / Fold change /veh LINC00158 (11744669_a_at) / RFU DUSP10 (11751237_a_at) / Fold change /veh DUSP10 (11751237_a_at) / RFU ID3 (11757404_x_at) / Fold change /veh ID3 (11757404_x_at) / RFU PLEKHG5 (11737974_s_at) / Fold change /veh PLEKHG5 (11737974_s_at) / RFU LRRC4B (11730491_at) / Fold change /veh LRRC4B (11730491_at) / RFU GIMAP4 (11747438_a_at) / Fold change /veh GIMAP4 (11747438_a_at) / RFU KRT8 (11758183_x_at) / Fold change /veh KRT8 (11758183_x_at) / RFU CNN1 (11734310_a_at) / Fold change /veh CNN1 (11734310_a_at) / RFU VPS37D (11726825_at) / Fold change /veh VPS37D (11726825_at) / RFU C10orf10 (11716522_x_at) / Fold change /veh C10orf10 (11716522_x_at) / RFU KIR2DL2 /// KIR2DL4 /// KIR2DL5A /// KIR2DL5B /// KIR2DS1 /// KIR2DS2 /// KIR2DS3 /// KIR2DS4 /// KIR3DL3 /// KIR3DL3 /// KIR3DS1 (11738374_at) / Fold change /veh KIR2DL2 /// KIR2DL4 /// KIR2DL5A /// KIR2DL5B /// KIR2DS1 /// KIR2DS2 /// KIR2DS3 /// KIR2DS4 /// KIR3DL3 /// KIR3DL3 /// KIR3DS1 (11738374_at) / RFU C1QL1 (11718748_at) / Fold change /veh C1QL1 (11718748_at) / RFU TMPRSS4 (11747572_a_at) / Fold change /veh TMPRSS4 (11747572_a_at) / RFU HAMP (11756126_x_at) / Fold change /veh HAMP (11756126_x_at) / RFU RNFT2 (11725882_a_at) / Fold change /veh RNFT2 (11725882_a_at) / RFU NR4A2 (11747474_a_at) / Fold change /veh NR4A2 (11747474_a_at) / RFU ABCC12 (11746883_a_at) / Fold change /veh ABCC12 (11746883_a_at) / RFU TMEM136 (11760407_x_at) / Fold change /veh TMEM136 (11760407_x_at) / RFU CLDN22 /// WWC2 (11732394_at) / Fold change /veh CLDN22 /// WWC2 (11732394_at) / RFU HLA-DPB1 (11760878_x_at) / Fold change /veh HLA-DPB1 (11760878_x_at) / RFU SPINT1 (11716480_a_at) / Fold change /veh SPINT1 (11716480_a_at) / RFU GAP43 (11754022_s_at) / Fold change /veh GAP43 (11754022_s_at) / RFU A4GNT (11735810_at) / Fold change /veh A4GNT (11735810_at) / RFU PRB3 (11715151_x_at) / Fold change /veh PRB3 (11715151_x_at) / RFU TUBB4B (11761932_at) / Fold change /veh TUBB4B (11761932_at) / RFU CAPN14 (11732068_a_at) / Fold change /veh CAPN14 (11732068_a_at) / RFU TMCC2 (11721928_a_at) / Fold change /veh TMCC2 (11721928_a_at) / RFU IRGQ (11745062_a_at) / Fold change /veh IRGQ (11745062_a_at) / RFU FAM174B (11720279_a_at) / Fold change /veh FAM174B (11720279_a_at) / RFU TMPRSS4 (11748680_a_at) / Fold change /veh TMPRSS4 (11748680_a_at) / RFU FAM212B (11763350_a_at) / Fold change /veh FAM212B (11763350_a_at) / RFU PLEKHG5 (11743358_a_at) / Fold change /veh PLEKHG5 (11743358_a_at) / RFU ZSCAN30 (11745921_a_at) / Fold change /veh ZSCAN30 (11745921_a_at) / RFU CMKLR1 (11741424_a_at) / Fold change /veh CMKLR1 (11741424_a_at) / RFU LOC101060620 /// MAPK8IP1 (11723275_at) / Fold change /veh LOC101060620 /// MAPK8IP1 (11723275_at) / RFU SPTSSB (11747773_x_at) / Fold change /veh SPTSSB (11747773_x_at) / RFU PRSS12 (11739890_at) / Fold change /veh PRSS12 (11739890_at) / RFU BIN1 (11741810_x_at) / Fold change /veh BIN1 (11741810_x_at) / RFU WNT11 (11732464_a_at) / Fold change /veh WNT11 (11732464_a_at) / RFU C10orf10 (11716521_a_at) / Fold change /veh C10orf10 (11716521_a_at) / RFU C5orf56 (11738089_at) / Fold change /veh C5orf56 (11738089_at) / RFU CYB561 (11721691_x_at) / Fold change /veh CYB561 (11721691_x_at) / RFU ANKRD19P (11752326_a_at) / Fold change /veh ANKRD19P (11752326_a_at) / RFU OR2T12 /// OR2T33 /// OR2T8 (11738714_s_at) / Fold change /veh OR2T12 /// OR2T33 /// OR2T8 (11738714_s_at) / RFU VCAN (11748164_a_at) / Fold change /veh VCAN (11748164_a_at) / RFU JSRP1 (11732532_at) / Fold change /veh JSRP1 (11732532_at) / RFU KRTAP10-11 (11738290_x_at) / Fold change /veh KRTAP10-11 (11738290_x_at) / RFU MYO3A (11730013_a_at) / Fold change /veh MYO3A (11730013_a_at) / RFU EBF3 (11725865_a_at) / Fold change /veh EBF3 (11725865_a_at) / RFU CAMK2N1 (11719241_x_at) / Fold change /veh CAMK2N1 (11719241_x_at) / RFU C5orf56 (11738088_a_at) / Fold change /veh C5orf56 (11738088_a_at) / RFU OLFML3 (11715873_a_at) / Fold change /veh OLFML3 (11715873_a_at) / RFU LOC100653217 /// NTM (11731650_a_at) / Fold change /veh LOC100653217 /// NTM (11731650_a_at) / RFU MAPK11 (11762145_a_at) / Fold change /veh MAPK11 (11762145_a_at) / RFU FIZ1 (11724087_x_at) / Fold change /veh FIZ1 (11724087_x_at) / RFU OASL (11726364_x_at) / Fold change /veh OASL (11726364_x_at) / RFU SOX15 (11748057_x_at) / Fold change /veh SOX15 (11748057_x_at) / RFU CD79A (11719716_a_at) / Fold change /veh CD79A (11719716_a_at) / RFU HIST1H1D (11736915_at) / Fold change /veh HIST1H1D (11736915_at) / RFU CASKIN2 (11723855_a_at) / Fold change /veh CASKIN2 (11723855_a_at) / RFU LOC730098 (11760151_x_at) / Fold change /veh LOC730098 (11760151_x_at) / RFU OR4N2 (11742367_at) / Fold change /veh OR4N2 (11742367_at) / RFU PRRT2 (11749266_a_at) / Fold change /veh PRRT2 (11749266_a_at) / RFU SNX32 (11753110_a_at) / Fold change /veh SNX32 (11753110_a_at) / RFU CDHR5 (11726645_a_at) / Fold change /veh CDHR5 (11726645_a_at) / RFU RCAN1 (11760418_a_at) / Fold change /veh RCAN1 (11760418_a_at) / RFU FAM167A (11723789_a_at) / Fold change /veh FAM167A (11723789_a_at) / RFU FAM26E (11764081_at) / Fold change /veh FAM26E (11764081_at) / RFU ISYNA1 (11749810_s_at) / Fold change /veh ISYNA1 (11749810_s_at) / RFU ACY1 (11761880_at) / Fold change /veh ACY1 (11761880_at) / RFU 11764098_at / Fold change /veh 11764098_at / RFU SAMD14 (11745864_x_at) / Fold change /veh SAMD14 (11745864_x_at) / RFU NPB (11741838_a_at) / Fold change /veh NPB (11741838_a_at) / RFU TMPRSS6 (11731388_a_at) / Fold change /veh TMPRSS6 (11731388_a_at) / RFU KRTAP10-2 (11738614_at) / Fold change /veh KRTAP10-2 (11738614_at) / RFU ARHGAP8 /// PRR5-ARHGAP8 (11727945_x_at) / Fold change /veh ARHGAP8 /// PRR5-ARHGAP8 (11727945_x_at) / RFU KRTAP5-7 /// NADSYN1 (11734609_at) / Fold change /veh KRTAP5-7 /// NADSYN1 (11734609_at) / RFU RASL12 (11751679_a_at) / Fold change /veh RASL12 (11751679_a_at) / RFU CDKN2B (11736163_a_at) / Fold change /veh CDKN2B (11736163_a_at) / RFU PRF1 (11729649_at) / Fold change /veh PRF1 (11729649_at) / RFU, ZNF638 /// ZNF638-IT1 / Fold change vs veh, ZNF638 /// ZNF638-IT1 / RFU, PANK3 / Fold change vs veh, PANK3 / RFU, SH3YL1 / Fold change vs veh, SH3YL1 / RFU, ZEB2 / Fold change vs veh, ZEB2 / RFU, NRIP1 / Fold change vs veh, NRIP1 / RFU, PTTG1IP / Fold change vs veh, PTTG1IP / RFU, CAPN2 / Fold change vs veh, CAPN2 / RFU, MED14 / Fold change vs veh, MED14 / RFU, SNORA58 / Fold change vs veh, SNORA58 / RFU, C1orf63 / Fold change vs veh, C1orf63 / RFU, LRRFIP1 / Fold change vs veh, LRRFIP1 / RFU, NDUFAF7 / Fold change vs veh, NDUFAF7 / RFU, SLC12A2 / Fold change vs veh, SLC12A2 / RFU, IBTK / Fold change vs veh, IBTK / RFU, ESF1 / Fold change vs veh, ESF1 / Fold change vs veh, TMEM50B / RFU, TAOK1 / Fold change vs veh, TAOK1 / RFU, ACBD3 / Fold change vs veh, ACBD3 / RFU, TMA16 / Fold change vs veh, TMA16 / RFU, RWDD3 / Fold change vs veh, RWDD3 / RFU, BCAT1 / Fold change vs veh, BCAT1 / RFU, EDEM3 / Fold change vs veh, EDEM3 / RFU, TMEM33 / Fold change vs veh, TMEM33 / RFU, WDR75 / Fold change vs veh, WDR75 / RFU, AHCTF1 / Fold change vs veh, AHCTF1 / RFU, TFRC / Fold change vs veh, TFRC / RFU, ZDHHC17 / Fold change vs veh, ZDHHC17 / RFU, NOM1 / Fold change vs veh, NOM1 / RFU, ARL8B / Fold change vs veh, ARL8B / RFU, ZBTB11 / Fold change vs veh, ZBTB11 / RFU, TAMM41 / Fold change vs veh, TAMM41 / RFU, KIAA1704 /// LOC100996395 / Fold change vs veh, KIAA1704 /// LOC100996395 / RFU, ING1 / Fold change vs veh, ING1 / RFU, TRMT61B / Fold change vs veh, TRMT61B / RFU, FUBP3 / Fold change vs veh, FUBP3 / RFU, TP53 / Fold change vs veh, TP53 / RFU, TNKS2 / Fold change vs veh, TNKS2 / RFU, ZFP14 / Fold change vs veh, ZFP14 / RFU, ACTR2 / Fold change vs veh, ACTR2 / RFU, PPP3R1 / Fold change vs veh, PPP3R1 / RFU, PIK3R1 / Fold change vs veh, PIK3R1 / RFU, HNRNPA1 / Fold change vs veh, HNRNPA1 / RFU, RNF170 / Fold change vs veh, RNF170 / RFU, ZNF28 / Fold change vs veh, ZNF28 / RFU, RNGTT / Fold change vs veh, RNGTT / RFU, OGT / Fold change vs veh, OGT / RFU, BRD1 / Fold change vs veh, BRD1 / RFU, MARS / Fold change vs veh, MARS / RFU, ZNF655 / Fold change vs veh, ZNF655 / RFU, FAHD1 / Fold change vs veh, FAHD1 / RFU, BDP1 / Fold change vs veh, BDP1 / RFU, LRRCC1 / Fold change vs veh, LRRCC1 / RFU, ARID1A / Fold change vs veh, ARID1A / RFU, ZNF146 / Fold change vs veh, ZNF146 / RFU, ZNF330 / Fold change vs veh, ZNF330 / RFU, GPN3 / Fold change vs veh, GPN3 / RFU, C9orf123 / Fold change vs veh, C9orf123 / RFU, N4BP2L2 / Fold change vs veh, N4BP2L2 / RFU, ARFIP1 / Fold change vs veh, ARFIP1 / RFU, FAM179B / Fold change vs veh, FAM179B / RFU, BCL10 / Fold change vs veh, BCL10 / RFU, UHRF1BP1L / Fold change vs veh, UHRF1BP1L / RFU, BET1 / Fold change vs veh, BET1 / RFU, CNOT2 / Fold change vs veh, CNOT2 / RFU, ZNF268 / Fold change vs veh, ZNF268 / Fold change vs veh, ZNF507 / RFU, DGCR2 / Fold change vs veh, DGCR2 / RFU, WDSUB1 / Fold change vs veh, WDSUB1 / Fold change vs veh, HSP90B1 /// MIR3652 / RFU, ADSS / Fold change vs veh, ADSS / RFU, GK / Fold change vs veh, GK / RFU, ZNF148 / Fold change vs veh, ZNF148 / RFU, TAF9 / Fold change vs veh, TAF9 / RFU, SLC1A5 / Fold change vs veh, SLC1A5 / RFU, SLMO2 / Fold change vs veh, SLMO2 / RFU, ABCC4 / Fold change vs veh, ABCC4 / RFU, LOC101060439 /// RAP1B / Fold change vs veh, LOC101060439 /// RAP1B / RFU, RFX7 / Fold change vs veh, RFX7 / RFU, GTPBP10 / Fold change vs veh, GTPBP10 / RFU, CNEP1R1 / Fold change vs veh, CNEP1R1 / RFU, BIVM-ERCC5 /// ERCC5 / Fold change vs veh, BIVM-ERCC5 /// ERCC5 / RFU, ILF3 / Fold change vs veh, ILF3 / RFU 11762660_at / Fold change /veh 11762660_at / RFU VCAN (11757783_s_at) / Fold change /veh VCAN (11757783_s_at) / RFU DDX43 (11728927_at) / Fold change /veh DDX43 (11728927_at) / RFU KRT8 (11758188_x_at) / Fold change /veh KRT8 (11758188_x_at) / RFU NKD1 (11759106_at) / Fold change /veh NKD1 (11759106_at) / RFU SRD5A1 (11742802_a_at) / Fold change /veh SRD5A1 (11742802_a_at) / RFU TPSAB1 /// TPSB2 (11721975_s_at) / Fold change /veh TPSAB1 /// TPSB2 (11721975_s_at) / RFU GSTM3 (11746129_a_at) / Fold change /veh GSTM3 (11746129_a_at) / RFU IL23R (11737362_x_at) / Fold change /veh IL23R (11737362_x_at) / RFU TMEM51 (11727254_a_at) / Fold change /veh TMEM51 (11727254_a_at) / RFU PIWIL2 (11732686_x_at) / Fold change /veh PIWIL2 (11732686_x_at) / RFU ORM1 (11744905_x_at) / Fold change /veh ORM1 (11744905_x_at) / RFU CCDC152 (11743942_at) / Fold change /veh CCDC152 (11743942_at) / RFU ECM1 (11717891_a_at) / Fold change /veh ECM1 (11717891_a_at) / RFU IL23R (11748794_a_at) / Fold change /veh IL23R (11748794_a_at) / RFU TNFAIP8L3 (11732012_x_at) / Fold change /veh TNFAIP8L3 (11732012_x_at) / RFU MBOAT4 (11741988_at) / Fold change /veh MBOAT4 (11741988_at) / RFU 11764193_at / Fold change /veh 11764193_at / RFU TMEM53 (11763286_at) / Fold change /veh TMEM53 (11763286_at) / RFU MAGEB2 (11727129_at) / Fold change /veh MAGEB2 (11727129_at) / RFU TMEM200A (11744735_a_at) / Fold change /veh TMEM200A (11744735_a_at) / RFU CCDC152 (11751479_a_at) / Fold change /veh CCDC152 (11751479_a_at) / RFU FAM211A (11726209_a_at) / Fold change /veh FAM211A (11726209_a_at) / RFU RGS16 (11746705_a_at) / Fold change /veh RGS16 (11746705_a_at) / RFU VCAN (11755009_s_at) / Fold change /veh VCAN (11755009_s_at) / RFU RHOB (11743442_s_at) / Fold change /veh RHOB (11743442_s_at) / RFU RGS16 (11720943_a_at) / Fold change /veh RGS16 (11720943_a_at) / RFU RGS16 (11720944_at) / Fold change /veh RGS16 (11720944_at) / RFU, VPS4B / Fold change vs veh, VPS4B / RFU, CREB1 / Fold change vs veh, CREB1 / RFU, DNAJC13 / Fold change vs veh, DNAJC13 / RFU, GNAQ / Fold change vs veh, GNAQ / RFU, CDK5R1 / Fold change vs veh, CDK5R1 / RFU, ZRANB3 / Fold change vs veh, ZRANB3 / RFU, CUL4A / Fold change vs veh, CUL4A / RFU, CCNY / Fold change vs veh, CCNY / RFU, UFL1 / Fold change vs veh, UFL1 / RFU, COG3 / Fold change vs veh, COG3 / RFU, DIAPH2 / Fold change vs veh, DIAPH2 / RFU, SKA2 / Fold change vs veh, SKA2 / RFU, AFF3 / Fold change vs veh, AFF3 / RFU, LMF1 / Fold change vs veh, LMF1 / RFU, IPO11 / Fold change vs veh, IPO11 / RFU, DFFB / Fold change vs veh, DFFB / RFU, FOXP1 / Fold change vs veh, FOXP1 / RFU, CARD8 / Fold change vs veh, CARD8 / RFU, STRN3 / Fold change vs veh, STRN3 / RFU, ADK / Fold change vs veh, ADK / RFU, RASSF2 / Fold change vs veh, RASSF2 / RFU, WIPF1 / Fold change vs veh, WIPF1 / RFU, LARP1B / Fold change vs veh, LARP1B / RFU, RASA1 / Fold change vs veh, RASA1 / RFU, RB1 / Fold change vs veh, RB1 / RFU, PPFIA1 / Fold change vs veh, PPFIA1 / RFU, MAT2A / Fold change vs veh, MAT2A / RFU, CCT5 / Fold change vs veh, CCT5 / RFU, WDR92 / Fold change vs veh, WDR92 / RFU, CUX1 / Fold change vs veh, CUX1 / RFU, TTC7A / Fold change vs veh, TTC7A / RFU, TMEM135 / Fold change vs veh, TMEM135 / RFU, DEPTOR / Fold change vs veh, DEPTOR / RFU, CPM / Fold change vs veh, CPM / RFU, DNAJB6 / Fold change vs veh, DNAJB6 / RFU, CACNA2D3 / Fold change vs veh, CACNA2D3 / RFU, DTX4 / Fold change vs veh, DTX4 / RFU, TFCP2 / Fold change vs veh, TFCP2 / RFU, GMCL1 /// GMCL1P1 / Fold change vs veh, GMCL1 /// GMCL1P1 / RFU, AEBP2 / Fold change vs veh, AEBP2 / RFU, SNHG1 /// SNORD22 /// SNORD25 /// SNORD26 /// SNORD27 /// SNORD28 /// SNORD29 /// SNORD31 / Fold change vs veh, SNHG1 /// SNORD22 /// SNORD25 /// SNORD26 /// SNORD27 /// SNORD28 /// SNORD29 /// SNORD31 / Fold change (Aza/veh), C12orf56 (ProbeSet 11735607_a_at) / Fold change (ACY-1035/veh), C12orf56 (ProbeSet 11735607_a_at) / Fold change (Aza/veh), FGFR1OP (ProbeSet 11751329_s_at) / Fold change (ACY-1035/veh), FGFR1OP (ProbeSet 11751329_s_at) / Fold change (Aza/veh), VPS36 (ProbeSet 11739960_a_at) / Fold change (ACY-1035/veh), VPS36 (ProbeSet 11739960_a_at) / RFU SYPL1 (11715823_x_at) / Fold change /veh SYPL1 (11715823_x_at) / RFU IGFBP7 (11715501_s_at) / Fold change /veh IGFBP7 (11715501_s_at) / RFU REEP3 (11722064_at) / Fold change /veh REEP3 (11722064_at) / RFU IGLL1 (11728026_x_at) / Fold change /veh IGLL1 (11728026_x_at): dose or concentration left out as unconfirmed
Details: ProbeSet 11734937_a_at; LIST B

Question: For `Nc1ncn([C@@H]2O[C@H](CO)[C@@H](O)[C@H]2O)c(=O)n1` [azacitidine], which “RFU, CNOT2” value is on record?
Answer: 887.01 RFU
